Laboratory results taken from ChEMBL document CHEMBL3885881, “DrugMatrix”.

Species: Rattus norvegicus
Experiment: DrugMatrix - Regimen: Daily Repeat
Format: toxicity, organism-based, Sprague-Dawley
Set-up: regimen Daily Repeat, gender Male, age 6-8 weeks
Settings: in vivo, po, route oral GAVAGE, vehicle .5 % CMC; for ABSOLUTE BASOPHIL / ABSOLUTE EOSINOPHIL / ABSOLUTE LYMPHOCYTE / ABSOLUTE MONOCYTE / ABSOLUTE SEGMENTED NEUTROPHIL / BASOPHIL / EOSINOPHIL / ERYTHROCYTE COUNT / HEMATOCRIT / HEMOGLOBIN / LEUKOCYTE COUNT / LYMPHOCYTE / MEAN CORPUSCULAR HEMOGLOBIN / MEAN CORPUSCULAR HEMOGLOBIN CONCENTRATION / MEAN CORPUSCULAR VOLUME / MONOCYTE / NEUTROPHIL / NUCLEATED RED BLOOD CELLS / PLATELET COUNT: tissue Blood; for ALANINE AMINOTRANSFERASE / ALBUMIN / ALKALINE PHOSPHATASE / ASPARTATE AMINOTRANSFERASE / BLOOD UREA NITROGEN / CARBON DIOXIDE / CHLORIDE / CHOLESTEROL / CREATINE PHOSPHOKINASE / CREATININE / GLUCOSE / LACTATE DEHYDROGENASE / LIPASE / PHOSPHORUS / POTASSIUM / SODIUM / TOTAL BILIRUBIN / TOTAL PROTEIN / URIC ACID: tissue Plasma
[1] = 0 mg/kg, 72 h, dose level Control, time 3 day
[2] = 0 mg/kg, 120 h, dose level Control, time 5 day
[3] = 20 mg/kg, 72 h, dose level Low, time 3 day

CC(C)(C)NC(=O)[C@@H]1C[C@@H]2CCCC[C@@H]2CN1C[C@@H](O)[C@H](Cc1ccccc1)NC(=O)[C@H](CC(N)=O)NC(=O)c1ccc2ccccc2n1
ABSOLUTE BASOPHIL [1]: 0 CELLS/uL | ABSOLUTE EOSINOPHIL [1]: 222.83 CELLS/uL | ABSOLUTE LYMPHOCYTE [1]: 14453 CELLS/uL | ABSOLUTE MONOCYTE [1]: 0 CELLS/uL | ABSOLUTE SEGMENTED NEUTROPHIL [1]: 1490.83 CELLS/uL | BASOPHIL [1]: 0% | EOSINOPHIL [1]: 1.33% | ERYTHROCYTE COUNT [1]: 5.76 x10E6/uL | HEMATOCRIT [1]: 36.52% | HEMOGLOBIN [1]: 13.45 G/DL | LEUKOCYTE COUNT [1]: 16.17 x10E3/uL | LYMPHOCYTE [1]: 89.33% | MEAN CORPUSCULAR HEMOGLOBIN [1]: 23.37 pg | MEAN CORPUSCULAR HEMOGLOBIN CONCENTRATION [1]: 36.85 G/DL | MEAN CORPUSCULAR VOLUME [1]: 63.47 fL | MONOCYTE [1]: 0% | NEUTROPHIL [1]: 9.33% | NUCLEATED RED BLOOD CELLS [1]: 0 /100WBC | PLATELET COUNT [1]: 1239.5 x10E3/uL | ALANINE AMINOTRANSFERASE [1]: 43.83 u/L | ALBUMIN [1]: 4.27 G/DL | ALKALINE PHOSPHATASE [1]: 398.83 u/L | ASPARTATE AMINOTRANSFERASE [1]: 81.17 u/L | BLOOD UREA NITROGEN [1]: 17.67 mg/dL | CARBON DIOXIDE [1]: 27.5 mmol/L | CHLORIDE [1]: 99.17 MEQ/L | CHOLESTEROL [1]: 74 mg/dL | CREATINE PHOSPHOKINASE [1]: 331.5 u/L | CREATININE [1]: 0.2 mg/dL | GLUCOSE [1]: 171.33 mg/dL | LACTATE DEHYDROGENASE [1]: 241.67 u/L | LIPASE [1]: 9.5 u/L | PHOSPHORUS [1]: 12.25 mg/dL | POTASSIUM [1]: 6.33 MEQ/L | SODIUM [1]: 141.28 MEQ/L | TOTAL BILIRUBIN [1]: 0.15 mg/dL | TOTAL PROTEIN [1]: 5.98 G/DL | URIC ACID [1]: 1.63 mg/dL | ABSOLUTE BASOPHIL [2]: 0 CELLS/uL | ABSOLUTE EOSINOPHIL [2]: 148.67 CELLS/uL | ABSOLUTE LYMPHOCYTE [2]: 16020.5 CELLS/uL | ABSOLUTE MONOCYTE [2]: 29.17 CELLS/uL | ABSOLUTE SEGMENTED NEUTROPHIL [2]: 1468.33 CELLS/uL | BASOPHIL [2]: 0% | EOSINOPHIL [2]: 1% | ERYTHROCYTE COUNT [2]: 5.78 x10E6/uL | HEMATOCRIT [2]: 35.77% | HEMOGLOBIN [2]: 13.4 G/DL | LEUKOCYTE COUNT [2]: 17.67 x10E3/uL | LYMPHOCYTE [2]: 90.5% | MEAN CORPUSCULAR HEMOGLOBIN [2]: 23.22 pg | MEAN CORPUSCULAR HEMOGLOBIN CONCENTRATION [2]: 37.47 G/DL | MEAN CORPUSCULAR VOLUME [2]: 61.92 fL | MONOCYTE [2]: 0.17% | NEUTROPHIL [2]: 8.33% | NUCLEATED RED BLOOD CELLS [2]: 0.17 /100WBC | PLATELET COUNT [2]: 1255.5 x10E3/uL | ALANINE AMINOTRANSFERASE [2]: 46.5 u/L | ALBUMIN [2]: 4.38 G/DL | ALKALINE PHOSPHATASE [2]: 336 u/L | ASPARTATE AMINOTRANSFERASE [2]: 76.5 u/L | BLOOD UREA NITROGEN [2]: 20 mg/dL | CARBON DIOXIDE [2]: 27.5 mmol/L | CHLORIDE [2]: 101 MEQ/L | CHOLESTEROL [2]: 71.33 mg/dL | CREATINE PHOSPHOKINASE [2]: 231.83 u/L | CREATININE [2]: 0.37 mg/dL | GLUCOSE [2]: 168.83 mg/dL | LACTATE DEHYDROGENASE [2]: 174 u/L | LIPASE [2]: 8.67 u/L | PHOSPHORUS [2]: 11.48 mg/dL | POTASSIUM [2]: 6.82 MEQ/L | SODIUM [2]: 143.8 MEQ/L | TOTAL BILIRUBIN [2]: 0.2 mg/dL | TOTAL PROTEIN [2]: 5.98 G/DL | URIC ACID [2]: 1.83 mg/dL | ABSOLUTE BASOPHIL [3]: 0 CELLS/uL | ABSOLUTE EOSINOPHIL [3]: 240.67 CELLS/uL | ABSOLUTE LYMPHOCYTE [3]: 11319.33 CELLS/uL | ABSOLUTE MONOCYTE [3]: 32 CELLS/uL | ABSOLUTE SEGMENTED NEUTROPHIL [3]: 1141.33 CELLS/uL | BASOPHIL [3]: 0% | EOSINOPHIL [3]: 1.67% | ERYTHROCYTE COUNT [3]: 5.23 x10E6/uL | HEMATOCRIT [3]: 32.43% | HEMOGLOBIN [3]: 12.37 G/DL | LEUKOCYTE COUNT [3]: 12.73 x10E3/uL | LYMPHOCYTE [3]: 89% | MEAN CORPUSCULAR HEMOGLOBIN [3]: 23.63 pg | MEAN CORPUSCULAR HEMOGLOBIN CONCENTRATION [3]: 38.13 G/DL | MEAN CORPUSCULAR VOLUME [3]: 62 fL | MONOCYTE [3]: 0.33% | NEUTROPHIL [3]: 9% | NUCLEATED RED BLOOD CELLS [3]: 0 /100WBC | PLATELET COUNT [3]: 1264.33 x10E3/uL | ALANINE AMINOTRANSFERASE [3]: 43.67 u/L | ALBUMIN [3]: 4.1 G/DL | ALKALINE PHOSPHATASE [3]: 371.33 u/L | ASPARTATE AMINOTRANSFERASE [3]: 73.67 u/L | BLOOD UREA NITROGEN [3]: 14.33 mg/dL | CARBON DIOXIDE [3]: 25.67 mmol/L | CHLORIDE [3]: 102 MEQ/L | CHOLESTEROL [3]: 79.67 mg/dL | CREATINE PHOSPHOKINASE [3]: 319.67 u/L | CREATININE [3]: 0.15 mg/dL | GLUCOSE [3]: 144.67 mg/dL | LACTATE DEHYDROGENASE [3]: 139.33 u/L | LIPASE [3]: 8 u/L | PHOSPHORUS [3]: 12.8 mg/dL | POTASSIUM [3]: 6.81 MEQ/L | SODIUM [3]: 142.53 MEQ/L | TOTAL BILIRUBIN [3]: 0.2 mg/dL | TOTAL PROTEIN [3]: 5.67 G/DL | URIC ACID [3]: 1.47 mg/dL
